Experimental data from ChEMBL document CHEMBL3877294, “Discovery of Ruzasvir (MK-8408): A Potent, Pan-Genotype HCV NS5A Inhibitor with Optimized Activity against Common Resistance-Associated Polymorphisms” (J Med Chem, 2017).

What was measured:
Type in all cases: cell-based
[1] = tested on: T1, Nonstructural protein 5A (Hepatitis C virus), Q5L478 [Y93H]; assay: Inhibition of HCV genotype-1a NS5A Y93H mutant infected in human HuH7 cells by luciferase reporter gene assay; conditions: Hepatitis C virus subtype 1a; Huh-7
T1 sequence (whole entry): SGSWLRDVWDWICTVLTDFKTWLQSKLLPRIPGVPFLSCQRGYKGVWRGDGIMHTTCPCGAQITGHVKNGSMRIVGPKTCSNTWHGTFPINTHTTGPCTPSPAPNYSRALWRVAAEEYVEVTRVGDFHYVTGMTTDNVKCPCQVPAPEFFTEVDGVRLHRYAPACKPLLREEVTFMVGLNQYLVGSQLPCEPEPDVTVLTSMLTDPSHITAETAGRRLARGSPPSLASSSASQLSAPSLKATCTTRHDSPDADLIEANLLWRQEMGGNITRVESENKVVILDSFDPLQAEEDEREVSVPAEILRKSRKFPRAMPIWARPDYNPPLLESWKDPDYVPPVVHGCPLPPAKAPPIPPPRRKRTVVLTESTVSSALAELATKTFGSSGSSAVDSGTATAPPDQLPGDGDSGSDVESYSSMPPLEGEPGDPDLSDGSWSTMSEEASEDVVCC

Huh-7 [2] = assay: Inhibition of HCV genotype-2b NS5A harboring methionine at position 31 infected in human HuH7 cells by luciferase reporter gene assay; conditions: Hepatitis C virus subtype 2b
Huh-7 [3] = assay: Inhibition of HCV genotype-4a NS5A infected in human HuH7 cells by luciferase reporter gene assay; conditions: Hepatitis C virus subtype 4a
Huh-7 [4] = assay: Inhibition of HCV genotype-1a NS5A infected in human HuH7 cells by luciferase reporter gene assay; conditions: Hepatitis C virus subtype 1a
Huh-7 [5] = assay: Inhibition of HCV genotype-3a NS5A infected in human HuH7 cells by luciferase reporter gene assay; conditions: Hepatitis C virus subtype 3a
[6] = tested on: Nonstructural protein 5A (Hepatitis C virus), Q5L478 [UNDEFINED MUTATION]; assay: Inhibition of HCV genotype-1a NS5A L31V mutant infected in human HuH7 cells by luciferase reporter gene assay; conditions: Hepatitis C virus subtype 1a; Huh-7

SMILES | EC90 [1] | EC90 (Huh-7 [2]) | EC90 (Huh-7 [3]) | EC90 (Huh-7 [4]) | EC90 (Huh-7 [5]) | EC90 [6]
COC(=O)N[C@H](C(=O)N1CCC[C@H]1c1ncc(-c2cc(F)c3c(c2)OC(c2cc(F)c(C4CC4)s2)n2c-3cc3cc(-c4cnc([C@@H]5CCCN5C(=O)[C@@H](NC(=O)OC)C(C)C)[nH]4)ccc32)[nH]1)C(C)C (stereo partly specified) | 0.17 nM | 0.68 nM | 0.014 nM | 0.005 nM | 0.012 nM | 0.029 nM
COC(=O)N[C@H](C(=O)N1CCC[C@H]1c1ncc(-c2cc(F)c3c(c2)OC(c2ccc(C(F)(F)F)s2)n2c-3cc3cc(-c4cnc([C@@H]5CCCN5C(=O)[C@@H](NC(=O)OC)C(C)C)[nH]4)ccc32)[nH]1)C(C)C (stereo partly specified) | 0.31 nM | 0.31 nM | 0.003 nM | 0.003 nM | 0.007 nM | 0.097 nM
CCc1ncc(C2Oc3cc(-c4cnc([C@@H]5CCCN5C(=O)[C@@H](NC(=O)OC)C(C)C)[nH]4)cc(F)c3-c3cc4cc(-c5cnc([C@@H]6C[C@H]7C[C@H]7N6C(=O)[C@@H](NC(=O)OC)C(C)C)[nH]5)ccc4n32)s1 (stereo partly specified) | 0.04 nM | 0.21 nM | 0.008 nM | 0.005 nM | 0.012 nM | 0.022 nM
CCCc1ncc(C2Oc3cc(-c4cnc([C@@H]5CCCN5C(=O)[C@@H](NC(=O)OC)C(C)C)[nH]4)cc(F)c3-c3cc4cc(-c5cnc([C@@H]6C[C@H]7C[C@H]7N6C(=O)[C@@H](NC(=O)OC)C(C)C)[nH]5)ccc4n32)s1 (stereo partly specified) | 0.021 nM | 0.14 nM | 0.012 nM | 0.005 nM | 0.009 nM | 0.013 nM
COC(=O)N[C@H](C(=O)N1CCC[C@H]1c1ncc(-c2cc(F)c3c(c2)OC(c2sccc2C2CC2)n2c-3cc3cc(-c4cnc([C@@H]5CCCN5C(=O)[C@@H](NC(=O)OC)C(C)C)[nH]4)ccc32)[nH]1)C(C)C (stereo partly specified) | 70 nM | > 33 nM | 0.32 nM | 0.012 nM | 4.7 nM | 1.74 nM
COC(=O)N[C@H](C(=O)N1CCC[C@H]1c1ncc(-c2cc(F)c3c(c2)OC(c2cnc(C(C)C)s2)n2c-3cc3cc(-c4cnc([C@@H]5CCCN5C(=O)[C@@H](NC(=O)OC)C(C)C)[nH]4)ccc32)[nH]1)C(C)C (stereo partly specified) | 0.05 nM | 0.14 nM | 0.004 nM | 0.002 nM | 0.006 nM | 0.022 nM
COC(=O)N[C@H](C(=O)N1CCC[C@H]1c1ncc(-c2cc(F)c3c(c2)OC(c2ccc(C4CC4)s2)n2c-3cc3cc(-c4cnc([C@@H]5C[C@H]6C[C@H]6N5C(=O)[C@@H](NC(=O)OC)C(C)C)[nH]4)ccc32)[nH]1)C(C)C (stereo partly specified) | 0.03 nM | 0.3 nM | 0.005 nM | 0.004 nM | 0.007 nM | 0.012 nM
COC(=O)N[C@H](C(=O)N1CCC[C@H]1c1ncc(-c2cc(F)c3c(c2)OC(c2ccc(C4CC4(F)F)s2)n2c-3cc3cc(-c4cnc([C@@H]5CCCN5C(=O)[C@@H](NC(=O)OC)C(C)C)[nH]4)ccc32)[nH]1)C(C)C (stereo partly specified) | 0.084 nM | 0.43 nM | 0.003 nM | 0.002 nM | 0.007 nM | 0.02 nM
COC(=O)N[C@H](C(=O)N1CCC[C@H]1c1ncc(-c2cc(F)c3c(c2)OC(c2cnc(OC)s2)n2c-3cc3cc(-c4cnc([C@@H]5CCCN5C(=O)[C@@H](NC(=O)OC)C(C)C)[nH]4)ccc32)[nH]1)C(C)C (stereo partly specified) | 0.035 nM | 0.068 nM | 0.004 nM | 0.002 nM | 0.007 nM | 0.015 nM
COC(=O)N[C@H](C(=O)N1CCC[C@H]1c1ncc(-c2cc(F)c3c(c2)OC(c2cnc(C(F)F)s2)n2c-3cc3cc(-c4cnc([C@@H]5CCCN5C(=O)[C@@H](NC(=O)OC)C(C)C)[nH]4)ccc32)[nH]1)C(C)C (stereo partly specified) | 0.056 nM | 0.069 nM | 0.002 nM | 0.002 nM | 0.004 nM | 0.003 nM
COC(=O)N[C@H](C(=O)N1CCC[C@H]1c1ncc(-c2cc(F)c3c(c2)OC(c2nc4ccccc4o2)n2c-3cc3cc(-c4cnc([C@@H]5CCCN5C(=O)[C@@H](NC(=O)OC)C(C)C)[nH]4)ccc32)[nH]1)C(C)C (stereo partly specified) | 0.32 nM | 1 nM | 0.008 nM | 0.004 nM | 0.025 nM | 0.042 nM
COC(=O)N[C@H](C(=O)N1CCC[C@H]1c1ncc(-c2cc(F)c3c(c2)OC(c2ccc(C#N)s2)n2c-3cc3cc(-c4cnc([C@@H]5CCCN5C(=O)[C@@H](NC(=O)OC)C(C)C)[nH]4)ccc32)[nH]1)C(C)C (stereo partly specified) | 2.38 nM | 3.4 nM | 0.004 nM | < 0.002 nM | 0.013 nM | 0.087 nM
COC(=O)N[C@H](C(=O)N1CCC[C@H]1c1ncc(-c2cc(F)c3c(c2)OC(c2cc(C4CC4)cs2)n2c-3cc3cc(-c4cnc([C@@H]5CCCN5C(=O)[C@@H](NC(=O)OC)C(C)C)[nH]4)ccc32)[nH]1)C(C)C (stereo partly specified) | 1.74 nM | 1.6 nM | – | < 0.002 nM | 0.008 nM | 0.028 nM
CCc1nnc(C2Oc3cc(-c4cnc([C@@H]5CCCN5C(=O)[C@@H](NC(=O)OC)C(C)C)[nH]4)cc(F)c3-c3cc4cc(-c5cnc([C@@H]6CCCN6C(=O)[C@@H](NC(=O)OC)C(C)C)[nH]5)ccc4n32)s1 (stereo partly specified) | 7.4 nM | > 1.7 nM | – | 0.016 nM | 0.18 nM | –
COC(=O)N[C@H](C(=O)N1CCC[C@H]1c1ncc(-c2ccc3c(c2)cc2n3C(c3cc4ccccc4s3)Oc3cc(-c4cnc([C@@H]5C[C@@H](F)CN5C(=O)[C@@H](NC(=O)OC)C(C)C)[nH]4)ccc3-2)[nH]1)C(C)C (stereo partly specified) | 1.1 nM | 3.4 nM | – | 0.01 nM | 0.19 nM | 0.53 nM
COC(=O)N[C@H](C(=O)N1CCC[C@H]1c1ncc(-c2cc(F)c3c(c2)OC(c2sc(C4CC4)cc2F)n2c-3cc3cc(-c4cnc([C@@H]5CCCN5C(=O)[C@@H](NC(=O)OC)C(C)C)[nH]4)ccc32)[nH]1)C(C)C (stereo partly specified) | 0.74 nM | 0.68 nM | 0.003 nM | 0.002 nM | 0.008 nM | –
COC(=O)N[C@H](C(=O)N1CCC[C@H]1c1ncc(-c2cc(F)c3c(c2)OC(c2cnc(C4CC4)o2)n2c-3cc3cc(-c4cnc([C@@H]5CCCN5C(=O)[C@@H](NC(=O)OC)C(C)C)[nH]4)ccc32)[nH]1)C(C)C (stereo partly specified) | 1.8 nM | 1.1 nM | 0.03 nM | 0.007 nM | 0.18 nM | 0.46 nM
CCCc1ccc(C2Oc3cc(-c4cnc([C@@H]5CCCN5C(=O)[C@@H](NC(=O)OC)C(C)C)[nH]4)cc(F)c3-c3cc4cc(-c5cnc([C@@H]6CCCN6C(=O)[C@@H](NC(=O)OC)C(C)C)[nH]5)ccc4n32)s1 (stereo partly specified) | 0.069 nM | 0.44 nM | 0.005 nM | 0.005 nM | 0.009 nM | 0.013 nM
COC(=O)N[C@H](C(=O)N1CCC[C@H]1c1ncc(-c2cc(F)c3c(c2)OC(c2cnns2)n2c-3cc3cc(-c4cnc([C@@H]5CCCN5C(=O)[C@@H](NC(=O)OC)C(C)C)[nH]4)ccc32)[nH]1)C(C)C (stereo partly specified) | 0.36 nM | 0.72 nM | 0.012 nM | 0.003 nM | 0.047 nM | 0.14 nM
COC(=O)N[C@H](C(=O)N1CCC[C@H]1c1ncc(-c2cc(F)c3c(c2)OC(c2ccc(CC(F)(F)F)s2)n2c-3cc3cc(-c4cnc([C@@H]5CCCN5C(=O)[C@@H](NC(=O)OC)C(C)C)[nH]4)ccc32)[nH]1)C(C)C (stereo partly specified) | 0.1 nM | 0.65 nM | 0.004 nM | 0.001 nM | 0.007 nM | 0.022 nM
COC(=O)N[C@H](C(=O)N1CCC[C@H]1c1ncc(-c2cc(F)c3c(c2)OC(c2ccc(CC4CC4)s2)n2c-3cc3cc(-c4cnc([C@@H]5CCCN5C(=O)[C@@H](NC(=O)OC)C(C)C)[nH]4)ccc32)[nH]1)C(C)C (stereo partly specified) | 0.18 nM | – | 0.003 nM | 0.003 nM | 0.004 nM | 0.011 nM
COC(=O)N[C@H](C(=O)N1CCC[C@H]1c1ncc(-c2cc(F)c3c(c2)OC(c2nc(C4CC4)cs2)n2c-3cc3cc(-c4cnc([C@@H]5CCCN5C(=O)[C@@H](NC(=O)OC)C(C)C)[nH]4)ccc32)[nH]1)C(C)C (stereo partly specified) | 2.6 nM | 4.6 nM | – | 0.002 nM | 0.073 nM | –
COC(=O)N[C@H](C(=O)N1CCC[C@H]1c1ncc(-c2cc(F)c3c(c2)OC(c2cncs2)n2c-3cc3cc(-c4cnc([C@@H]5CCCN5C(=O)[C@@H](NC(=O)OC)C(C)C)[nH]4)ccc32)[nH]1)C(C)C (stereo partly specified) | 1 nM | 2.47 nM | – | 0.006 nM | 0.079 nM | –
COC(=O)N[C@H](C(=O)N1CCC[C@H]1c1ncc(-c2cc(F)c3c(c2)OC(c2ncc(C4CC4)s2)n2c-3cc3cc(-c4cnc([C@@H]5CCCN5C(=O)[C@@H](NC(=O)OC)C(C)C)[nH]4)ccc32)[nH]1)C(C)C (stereo partly specified) | 1 nM | 1.63 nM | – | 0.005 nM | – | 0.017 nM
COC(=O)N[C@H](C(=O)N1CCC[C@H]1c1ncc(-c2cc(F)c3c(c2)OC(c2cnco2)n2c-3cc3cc(-c4cnc([C@@H]5CCCN5C(=O)[C@@H](NC(=O)OC)C(C)C)[nH]4)ccc32)[nH]1)C(C)C (stereo partly specified) | 8.5 nM | 14.1 nM | – | 0.06 nM | 0.25 nM | –
